Measurements reported in paper PMC3565387 (Bioorganic & medicinal chemistry, 2012).

Experiments:
human neutrophils = test: Ca2+ mobilization in human neutrophils; type: cell-based; conditions: % of response induced by 5 nM fMLF
FPR1 [1] = molecular target: T1, FPR1 (Homo sapiens, UniProt P21462); test: Ca2+ mobilization in HL-60 cells transfected with FPR1; type: cell-based; conditions: HL-60-FPR1 cells; % of response induced by 5 nM fMLF
T1 sequence (P21462 1-350): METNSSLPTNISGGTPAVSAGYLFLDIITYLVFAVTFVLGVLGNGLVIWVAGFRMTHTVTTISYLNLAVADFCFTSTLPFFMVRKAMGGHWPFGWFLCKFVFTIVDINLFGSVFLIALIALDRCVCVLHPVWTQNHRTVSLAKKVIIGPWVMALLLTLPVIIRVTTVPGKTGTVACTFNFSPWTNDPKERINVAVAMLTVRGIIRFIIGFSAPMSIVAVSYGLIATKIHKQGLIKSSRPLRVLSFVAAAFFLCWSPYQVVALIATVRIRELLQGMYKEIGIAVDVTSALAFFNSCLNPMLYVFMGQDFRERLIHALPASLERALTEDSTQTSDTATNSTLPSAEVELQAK

FPR2 [2] = molecular target: T2, FPR2 (Homo sapiens, UniProt P25090); test: Ca2+ mobilization in HL-60 cells transfected with FPR2; type: cell-based; conditions: HL-60-FPR2 cells; % of response induced by 5 nM WKYMVm
T2 sequence (P25090 1-351): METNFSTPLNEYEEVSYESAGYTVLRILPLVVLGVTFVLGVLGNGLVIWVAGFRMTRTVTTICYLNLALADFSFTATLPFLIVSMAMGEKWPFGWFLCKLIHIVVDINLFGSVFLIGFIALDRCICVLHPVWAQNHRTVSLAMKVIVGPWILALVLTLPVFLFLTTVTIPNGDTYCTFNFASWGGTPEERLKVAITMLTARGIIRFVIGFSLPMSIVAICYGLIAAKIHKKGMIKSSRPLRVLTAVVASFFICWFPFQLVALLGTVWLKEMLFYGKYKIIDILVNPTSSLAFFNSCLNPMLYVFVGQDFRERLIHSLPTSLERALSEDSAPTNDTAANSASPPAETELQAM

FPR2/ALX = conditions: read-out: EC50 at FPR2/ALX; endogenous ligand; cited from earlier work
FPR2 [3] = molecular target: T2, FPR2; test: PathHunter β-arrestin recruitment in CHO-K1 FPR2 cells; type: cell-based
FPR1 [4] = molecular target: T1, FPR1; test: PathHunter β-arrestin recruitment in CHO-K1 FPR1 cells; type: cell-based; conditions: % of response induced by 5 nM WKYMVm

SMILES | Ca2+ mobilization hPMN efficacy (human neutrophils) [%] | Ca2+ mobilization FPR1 efficacy (FPR1 [1]) [%] | Ca2+ mobilization FPR2 efficacy (FPR2 [2]) [%] | also measured
CCC(C(=O)Nc1ccc(Br)cc1)n1nc(C)cc(Cc2cccc(OC)c2)c1=O (racemic) [(±)-5b, (±)-N-(4-Bromophenyl)-2-[5-(3-methoxybenzyl)-3-methyl-6-oxopyridazin-1(6H)-yl]butanamide] | 145 | 95 | 95 | –
CCCCC[C@H](O)/C=C/C=C\C=C\C=C\[C@@H](O)[C@@H](O)CCCC(=O)O [LXA4, lipoxin A4] | – | – | – | EC50 (FPR2/ALX): 1 nM
CSCC[C@H](NC=O)C(=O)N[C@@H](CC(C)C)C(=O)N[C@@H](Cc1ccccc1)C(=O)O [fMLF, N-formyl-methionine-leucine-phenylalanine, reference compound] | – | – | – | β-Arrestin recruitment FPR2 (in words) (FPR2 [3]; FPR2 CHO-K1 cells): no recruitment
COc1cccc(Cc2cc(C)nn([C@@H](C)C(=O)Nc3ccc(Br)cc3)c2=O)c1 [S-(+)-5a, S-(+)-N-(4-Bromophenyl)-2-[5-(3-methoxybenzyl)-3-methyl-6-oxopyridazin-1(6H)-yl]propanamide] | 65 | – | – | –
COc1cccc(Cc2cc(C)nn([C@H](C)C(=O)Nc3ccc(Br)cc3)c2=O)c1 [R-(−)-5a, R-(−)-N-(4-Bromophenyl)-2-[5-(3-methoxybenzyl)-3-methyl-6-oxopyridazin-1(6H)-yl]propanamide] | 110 | – | – | –
CCC[C@H](C(=O)Nc1ccc(Br)cc1)n1nc(C)cc(Cc2cccc(OC)c2)c1=O [R-(−)-5c, R-(−)-N-(4-Bromophenyl)-2-[5-(3-methoxybenzyl)-3-methyl-6-oxopyridazin-1(6H)-yl]pentanamide] | 145 | 85 | 120 | β-Arrestin recruitment FPR1 efficacy (FPR1 [4]): 120%; β-Arrestin recruitment FPR2 efficacy (FPR2 [3]; CHO-K1 FPR2 cells, % of response induced by 5 nM WKYMVm): 100%
